{"source": "patent US20260159536A1", "about": "“AKR1C3-ACTIVATED DNA ALKYLATING AGENT, AND MEDICAL APPLICATION THEREOF” (ASCENTAWITS PHARMACEUTICALS, LTD., priority 2021, published 2026)", "key": {"[1]": {"system": "NCI-H522", "assay": "AKR1C3-dependent cytotoxicity, NSCLC cell line NCI-H522", "format": "cell-based", "settings": "Homo sapiens", "procedure": "(§1) The tested compound was then added. The compound was dissolved in 100% DMSO at 200 times of the desired final test concentration. When the medicament was added, the compound was further diluted to 4 times of the desired final test concentration by using the complete medium. 50 μL of aliquots of the compound with specific concentration were added to the microwells containing 150 μL of medium, and then the final medicament concentration was obtained. […] The medicament was then washed. […] After the incubation was finished, the Alamar Blue was used to analyze and quantify the living cells."}, "[2]": {"system": "HuPrime model GA6201 human gastric cancer", "settings": "for Tumor volume: AST-3424 5 mg/kg i.v.", "procedure": "The test was divided into groups of the test drug Isocyclophosphamide 60 mg/kg group, the test drug AST-3424 5 mg/kg group, the test drug A compound 2.5 mg/kg and 5 mg/kg groups, and normal saline (pH 7.0-7.6) vehicle control group, a total of 5 groups, with 5 mice per group.\nIn the above dosing regimen, Isocyclophosphamide was designed based on the best dosing regimen with maximum safe dosage as recited in the document (Jessica D. Sun, Qian Liu, Dharmendra Ahluwalia, Damien J. Ferraro, Yan Wang, Don Jung, Mark D. Matteucci, and Charles P. Hart. Comparison of hypoxia-activated prodrug evofosfamide (TH-302) and ifosfamide in preclinical non-small cell lung cancer models [J]. Cancer Biology & Therapy, 2016, 17(4): 371-380)."}, "[3]": {"assay": "Liver microsome stability, monkey", "format": "in vitro ADME", "settings": "Monkey liver microsomes; with the addition of NADPH", "procedure": "(§2) 1) Two individual experiments were performed.\n(§3) All experiments were performed in duplicate."}, "[4]": {"system": "H460 cancer cells", "assay": "H460 proliferation in the presence or absence of AKR1C3 inhibitor AST-3021 (Alamar Blue)", "format": "cell-based, human", "settings": "for IC50: Homo sapiens, NCI-H460, H460, 2 hours exposure", "procedure": "as §1"}, "[5]": {"assay": "Liver microsome stability, rat", "format": "in vitro ADME", "settings": "Rat liver microsomes; with the addition of NADPH", "procedure": "as §2, §3"}, "[6]": {"system": "HuPrime model LI6643 human liver cancer", "assay": "In vivo pharmacodynamics, liver cancer LI6643 PDX model (Compound A, Sorafenib, AST-3424; section 4.7)", "design": "species or system BALB/c nude mice", "settings": "for Tumor volume (x ± S): in mm³", "protocol": "Experiment Instruction: BALB/c nude mice were subcutaneously inoculated with HuPrime® model LI6643 tumor blocks to establish a subcutaneous grafted tumor model of human liver cancer. […] The efficacy was evaluated according to the relative tumor inhibition rate TGI (%), and the safety was evaluated according to the change in body weight and the death of the animals."}, "[7]": {"system": "NCI-H1563", "assay": "AKR1C3-dependent cytotoxicity, NSCLC cell line NCI-H1563", "format": "cell-based", "settings": "Homo sapiens", "procedure": "as §1"}, "[8]": {"system": "NCI-H2228", "assay": "AKR1C3-dependent cytotoxicity, NSCLC cell line NCI-H2228", "format": "cell-based", "settings": "Homo sapiens", "procedure": "as §1"}, "[9]": {"system": "NCI-H1792", "assay": "AKR1C3-dependent cytotoxicity, NSCLC cell line NCI-H1792", "format": "cell-based", "settings": "Homo sapiens", "procedure": "as §1"}, "[10]": {"system": "NCIH1755", "assay": "AKR1C3-dependent cytotoxicity, NSCLC cell line NCIH1755", "format": "cell-based", "settings": "Homo sapiens, NCI-H1755", "procedure": "as §1"}, "[11]": {"system": "NCIH2106", "assay": "AKR1C3-dependent cytotoxicity, NSCLC cell line NCIH2106", "format": "cell-based", "procedure": "as §1"}, "[12]": {"system": "NCI-H23", "assay": "AKR1C3-dependent cytotoxicity, NSCLC cell line NCI-H23", "format": "cell-based", "settings": "Homo sapiens", "procedure": "as §1"}, "[13]": {"system": "NCI-H2110", "assay": "AKR1C3-dependent cytotoxicity, NSCLC cell line NCI-H2110", "format": "cell-based", "procedure": "as §1"}, "[14]": {"settings": "AST-3424 5 mg/kg i.v. QWx2, Day 38"}, "[15]": {"settings": "0.3 mg/kg i.v. QDx5, 2 days off, 2 weeks off, QDx5, Day 21"}, "[16]": {"settings": "1.25 mg/kg i.v. QWx2, 1 week off, QWx2, Day 21"}, "[17]": {"settings": "AST-3424 1 mg/kg i.v. QDx5, 2 days off, 2 weeks off, QDx5, Day 21"}}, "note": "Like-named read-outs stand apart in the source and are kept apart here."}
{"smiles": "C[C@@H](OP(=O)(N1CC1)N1CC1)c1ccc([N+](=O)[O-])c(Oc2cccc(C(=O)N(C)C)c2)c1", "note": "[AST-3424]", "values": [{"measurement": "IC50", "setting": "[1]", "value": "> 1000", "unit": "nM"}, {"measurement": "Relative tumor volume (x ± S)", "setting": "[2]; [14]", "value": "0.11 ± 0.07"}, {"measurement": "T/C (%)", "setting": "[2]; [14]", "value": 1.21, "unit": "%"}, {"measurement": "TGI (%)", "setting": "[2]; [14]", "value": 98.79, "unit": "%"}, {"measurement": "Tumor volume (x ± S)", "setting": "[2]; [14]", "value": "12.65 ± 7.91"}, {"measurement": "Tumor volume", "setting": "[2]; 0 day", "value": 94.19, "unit": "mm^3"}, {"measurement": "Tumor volume", "setting": "[2]; 3 days", "value": 114.98, "unit": "mm^3"}, {"measurement": "Tumor volume", "setting": "[2]; 7 days", "value": 84.33, "unit": "mm^3"}, {"measurement": "Tumor volume", "setting": "[2]; 10 days", "value": 77.04, "unit": "mm^3"}, {"measurement": "Tumor volume", "setting": "[2]; 14 days", "value": 63.59, "unit": "mm^3"}, {"measurement": "Tumor volume", "setting": "[2]; 17 days", "value": 52.08, "unit": "mm^3"}, {"measurement": "Tumor volume", "setting": "[2]; 21 days", "value": 45.81, "unit": "mm^3"}, {"measurement": "Tumor volume", "setting": "[2]; 24 days", "value": 40.55, "unit": "mm^3"}, {"measurement": "Tumor volume", "setting": "[2]; 28 days", "value": 30.28, "unit": "mm^3"}, {"measurement": "Tumor volume", "setting": "[2]; 31 days", "value": 23.24, "unit": "mm^3"}, {"measurement": "Tumor volume", "setting": "[2]; 35 days", "value": 18.55, "unit": "mm^3"}, {"measurement": "Tumor volume", "setting": "[2]; 38 days", "value": 12.65, "unit": "mm^3"}, {"measurement": "Tumor volume", "setting": "[2]; 42 days", "value": 13.42, "unit": "mm^3"}, {"measurement": "Tumor volume", "setting": "[2]; 45 days", "value": 10.82, "unit": "mm^3"}, {"measurement": "Tumor volume", "setting": "[2]; 49 days", "value": 8.15, "unit": "mm^3"}, {"measurement": "body weight change / toxic effects", "setting": "[2]; GA6201 model, tested doses", "value": "no toxic effects"}, {"measurement": "Percentage remaining after 30 minutes", "setting": "[3]", "value": 0.03, "unit": "%"}, {"measurement": "IC50", "setting": "[4]; AST-3021 3 micromolar, read-out: IC50 With the addition of AST-3021", "value": 44.9, "unit": "nM"}, {"measurement": "IC50", "setting": "[4]; no AKR1C3 inhibitor, read-out: IC50 Without the addition of AST-3021", "value": 0.349, "unit": "nM"}, {"measurement": "Fold", "setting": "[4]; IC50 with AST-3021 over IC50 without", "value": 128.71}, {"measurement": "Percentage remaining after 30 minutes", "setting": "[5]", "value": 8.79, "unit": "%"}, {"measurement": "Relative tumor volume (x ± S)", "setting": "[6]; [15]", "value": "1.92 ± 0.2"}, {"measurement": "T/C (%)", "setting": "[6]; [15]", "value": 39.84, "unit": "%"}, {"measurement": "TGI (%)", "setting": "[6]; [15]", "value": 60.16, "unit": "%"}, {"measurement": "Tumor volume (x ± S)", "setting": "[6]; [15]", "value": "250.47 ± 44.00"}, {"measurement": "Tumor volume", "setting": "[6]; 0.3 mg/kg i.v., Day 0", "value": 124.74, "unit": "mm^3"}, {"measurement": "Tumor volume", "setting": "[6]; 0.3 mg/kg i.v., Day 3", "value": 210.50, "unit": "mm^3"}, {"measurement": "Tumor volume", "setting": "[6]; 0.3 mg/kg i.v., Day 7", "value": 242.31, "unit": "mm^3"}, {"measurement": "Tumor volume", "setting": "[6]; 0.3 mg/kg i.v., Day 10", "value": 227.43, "unit": "mm^3"}, {"measurement": "Tumor volume", "setting": "[6]; 0.3 mg/kg i.v., Day 14", "value": 208.00, "unit": "mm^3"}, {"measurement": "Tumor volume", "setting": "[6]; 0.3 mg/kg i.v., Day 17", "value": 223.43, "unit": "mm^3"}, {"measurement": "Tumor volume", "setting": "[6]; 0.3 mg/kg i.v., Day 21", "value": 250.47, "unit": "mm^3"}, {"measurement": "Tumor volume", "setting": "[6]; 0.3 mg/kg i.v., Day 24", "value": 302.15, "unit": "mm^3"}, {"measurement": "Tumor volume", "setting": "[6]; 0.3 mg/kg i.v., Day 28", "value": 386.93, "unit": "mm^3"}, {"measurement": "Relative tumor volume (x ± S)", "setting": "[6]; [16]", "value": "1.36 ± 0.22"}, {"measurement": "T/C (%)", "setting": "[6]; [16]", "value": 28.14, "unit": "%"}, {"measurement": "TGI (%)", "setting": "[6]; [16]", "value": 71.86, "unit": "%"}, {"measurement": "Tumor volume (x ± S)", "setting": "[6]; [16]", "value": "169.64 ± 41.89"}, {"measurement": "Tumor volume", "setting": "[6]; 1.25 mg/kg i.v., Day 0", "value": 124.62, "unit": "mm^3"}, {"measurement": "Tumor volume", "setting": "[6]; 1.25 mg/kg i.v., Day 3", "value": 205.56, "unit": "mm^3"}, {"measurement": "Tumor volume", "setting": "[6]; 1.25 mg/kg i.v., Day 7", "value": 217.23, "unit": "mm^3"}, {"measurement": "Tumor volume", "setting": "[6]; 1.25 mg/kg i.v., Day 10", "value": 216.04, "unit": "mm^3"}, {"measurement": "Tumor volume", "setting": "[6]; 1.25 mg/kg i.v., Day 14", "value": 187.94, "unit": "mm^3"}, {"measurement": "Tumor volume", "setting": "[6]; 1.25 mg/kg i.v., Day 17", "value": 176.52, "unit": "mm^3"}, {"measurement": "Tumor volume", "setting": "[6]; 1.25 mg/kg i.v., Day 21", "value": 169.64, "unit": "mm^3"}, {"measurement": "Tumor volume", "setting": "[6]; 1.25 mg/kg i.v., Day 24", "value": 174.54, "unit": "mm^3"}, {"measurement": "Tumor volume", "setting": "[6]; 1.25 mg/kg i.v., Day 28", "value": 146.31, "unit": "mm^3"}, {"measurement": "Relative tumor volume (x ± S)", "setting": "[6]; [17]", "value": "0.66 ± 0.22"}, {"measurement": "T/C (%)", "setting": "[6]; [17]", "value": 13.68, "unit": "%"}, {"measurement": "TGI (%)", "setting": "[6]; [17]", "value": 86.32, "unit": "%"}, {"measurement": "Tumor volume (x ± S)", "setting": "[6]; [17]", "value": "75.89 ± 21.82"}, {"measurement": "Tumor volume", "setting": "[6]; AST-3424 1 mg/kg i.v., Day 0", "value": 124.32, "unit": "mm^3"}, {"measurement": "Tumor volume", "setting": "[6]; AST-3424 1 mg/kg i.v., Day 3", "value": 156.70, "unit": "mm^3"}, {"measurement": "Tumor volume", "setting": "[6]; AST-3424 1 mg/kg i.v., Day 7", "value": 144.82, "unit": "mm^3"}, {"measurement": "Tumor volume", "setting": "[6]; AST-3424 1 mg/kg i.v., Day 10", "value": 110.44, "unit": "mm^3"}, {"measurement": "Tumor volume", "setting": "[6]; AST-3424 1 mg/kg i.v., Day 14", "value": 90.12, "unit": "mm^3"}, {"measurement": "Tumor volume", "setting": "[6]; AST-3424 1 mg/kg i.v., Day 17", "value": 97.62, "unit": "mm^3"}, {"measurement": "Tumor volume", "setting": "[6]; AST-3424 1 mg/kg i.v., Day 21", "value": 75.89, "unit": "mm^3"}, {"measurement": "Tumor volume", "setting": "[6]; AST-3424 1 mg/kg i.v., Day 24", "value": 89.34, "unit": "mm^3"}, {"measurement": "Tumor volume", "setting": "[6]; AST-3424 1 mg/kg i.v., Day 28", "value": 98.43, "unit": "mm^3"}, {"measurement": "IC50", "setting": "[7]", "value": 2.5, "unit": "nM"}, {"measurement": "IC50", "setting": "[8]", "value": 0.21, "unit": "nM"}, {"measurement": "IC50", "setting": "[9]", "value": 4.5, "unit": "nM"}, {"measurement": "IC50", "setting": "[10]", "value": 8.2, "unit": "nM"}, {"measurement": "IC50", "setting": "[11]", "value": "> 1000", "unit": "nM"}, {"measurement": "IC50", "setting": "[12]", "value": "> 1000", "unit": "nM"}, {"measurement": "IC50", "setting": "[13]", "value": 1.1, "unit": "nM"}]}
